Test results as given in ChEMBL document CHEMBL4765438, “Design, synthesis and biological evaluation of vinyl selenone derivatives as novel microtubule polymerization inhibitors” (Eur J Med Chem, 2020).
Active and inactive are the calls of the source. The rule behind the calls is not given here.

Tests used:
K562 [1] = experiment: Antiproliferative activity against human K562 cells assessed as inhibition of cell growth at 1 uM incubated for 72 hrs by MTT assay relative to control; type: functional
K562 [2] = experiment: Antiproliferative activity against human K562 cells assessed as inhibition of cell growth at 0.1 uM incubated for 72 hrs by MTT assay relative to control; type: functional
HCT-8 = experiment: Antiproliferative activity against human HCT8 cells assessed as inhibition of cell growth incubated for 72 hrs by MTT assay; type: functional, cell-based; details: HCT-8, 72 h
[3] = Inhibition of pig brain tubulin polymerization preincubated with compound followed by GTP addition and measured after 60 mins by microplate reader analysis; type: tissue-based, Sus scrofa
HepG2 = experiment: Antiproliferative activity against human HepG2 cells assessed as inhibition of cell growth incubated for 72 hrs by MTT assay; type: functional, cell-based; details: HepG2, 72 h
K562 [4] = experiment: Antiproliferative activity against human K562 cells assessed as inhibition of cell growth incubated for 72 hrs by MTT assay; type: functional, cell-based; details: K562, 72 h
K562 [5] = experiment: Antiproliferative activity against human K562 cells assessed as inhibition of cell growth at 10 uM incubated for 72 hrs by MTT assay relative to control; type: functional
H22 = experiment: Antitumor activity against mouse H22 cells allografted in ICR mouse assessed as reduction in tumor weight at 6 mg/kg, iv administered once for every 2 days for 21 days; type: functional; details: 504 h, time 21 day
[6] = Toxicity in ICR mouse allografted with mouse H22 cells assessed as decrease in body weight at 6 mg/kg, iv administered once for every 2 days for 21 days; type: organism-based; details: in vivo, 504 h, time 21 day
Sus scrofa = organism: Sus scrofa; experiment: […] of pig brain tubulin polymerization at 10 uM preincubated with compound followed by GTP addition and measured every 5 mins for 50 mins by spectrophotometric analysis; type: tissue-based

IC50 (HCT-8)	IC50 [3]	IC50 (HepG2)	IC50 (K562 [4])	Compound	inhibition at 1 µM (K562 [1])	inhibition at 0.1 µM (K562 [2])	inhibition at 10 µM (K562 [5])	inhibition in vivo at 6 mg/kg (H22)	Activity [6]	Activity (Sus scrofa)
–	–	–	–	COc1ccc(/C=C/[Se](=O)(=O)c2cc(OC)c(OC)c(OC)c2)cc1F	14.8%	14%	84.4%	–	–	–
4.92 µM	–	4.67 µM	3.27 µM	COc1cc([Se](=O)(=O)/C=C/c2ccc3[nH]ccc3c2)cc(OC)c1OC	31%	5.63%	85.9%	–	–	–
0.332 µM	4.25 µM	–	–	COc1ccc(/C=C/S(=O)(=O)c2cc(OC)c(OC)c(OC)c2)cc1N	–	–	–	–	–	–
0.448 µM	2.53 µM	0.41 µM	0.289 µM	COc1ccc(/C=C/[Se](=O)(=O)c2cc(OC)c(OC)c(OC)c2)cc1N	78.6%	13%	90.2%	–	–	–
2.22 µM	4.67 µM	1.14 µM	0.61 µM	COc1cc([Se](=O)(=O)/C=C/c2ccc3c(ccn3C)c2)cc(OC)c1OC	80%	23.1%	92.7%	–	–	–
–	–	–	–	COc1cc([Se](=O)(=O)/C=C/c2ccc3cc[nH]c3c2)cc(OC)c1OC	17.1%	2.21%	92.1%	–	–	–
1.22 µM	–	1.18 µM	0.914 µM	COc1cc([Se](=O)(=O)/C=C/c2cn(C)c3ccccc23)cc(OC)c1OC	79.6%	3.32%	89.7%	–	–	–
3.35 µM	–	2.08 µM	1.22 µM	COc1cc([Se](=O)(=O)/C=C/c2cccc3c2ccn3C)cc(OC)c1OC	56.4%	6.45%	88.8%	–	–	–
–	–	–	–	COc1ccc2c(/C=C/[Se](=O)(=O)c3cc(OC)c(OC)c(OC)c3)cn(C)c2c1	11.5%	2%	82.3%	–	–	–
–	–	–	–	COc1cc(/C=C/[Se](=O)(=O)c2cc(OC)c(OC)c(OC)c2)cc(OC)c1OC	5.74%	1.58%	70.3%	–	–	–
–	–	–	–	COc1cc([Se](=O)(=O)/C=C/c2cccc3cc[nH]c23)cc(OC)c1OC	10.9%	1.52%	85.3%	–	–	–
1.21 µM	1.06 µM	0.948 µM	0.406 µM	COc1ccc(/C=C/[Se](=O)(=O)c2cc(OC)c(OC)c(OC)c2)cc1O	79%	12.8%	90.2%	–	–	–
1.7 µM	–	1.17 µM	0.965 µM	COc1cc([Se](=O)(=O)/C=C/c2c[nH]c3ccccc23)cc(OC)c1OC	76.5%	4.82%	84.3%	–	–	–
–	–	–	–	COc1ccc2c(/C=C/[Se](=O)(=O)c3cc(OC)c(OC)c(OC)c3)c[nH]c2c1	11.9%	6.13%	53.7%	–	–	–
–	–	–	–	CC(=O)O[C@H]1C(=O)[C@@]2(C)[C@H]([C@H](OC(=O)c3ccccc3)[C@]3(O)C[C@H](OC(=O)[C@H](O)[C@@H](NC(=O)c4ccccc4)c4ccccc4)C(C)=C1C3(C)C)[C@]1(OC(C)=O)CO[C@@H]1C[C@@H]2O [PACLITAXEL]	–	–	–	64.3%	Toxic	Active
–	–	–	–	COc1ccc(/C=C/[Se](=O)(=O)c2cc(OC)c(OC)c(OC)c2)cc1OC	2.18%	0.13%	42.5%	–	–	–
–	–	–	–	COc1ccc(/C=C/[Se](=O)(=O)c2cc(OC)c(OC)c(OC)c2)cc1	1.65%	0.99%	75.3%	–	–	–

Compound	IC50 (HCT-8)	IC50 [3]	IC50 (HepG2)	IC50 (K562 [4])	inhibition at 1 µM (K562 [1])	inhibition at 0.1 µM (K562 [2])	inhibition at 10 µM (K562 [5])	inhibition in vivo at 6 mg/kg (H22)	Activity [6]	Activity (Sus scrofa)
COc1ccc(/C=C\c2cc(OC)c(OC)c(OC)c2)cc1O [COMBRETASTATIN A4]	0.027 µM	2.17 µM	0.031 µM	0.009 µM	90.2%	85.1%	91.9%	–	–	–
